Tested on: mice
Assay: Y-maze test in mice given scopolamine
Assay type: in vivo, mouse
Settings: based on total motor activity and correct alternation rate, scopolamine-treated mice
Method: The Y-maze test was performed in mice divided into three types A, B, and C. The mice were placed in a Y-maze and allowed to move freely for 6 minutes. The sequence of entries into each arm and the total number of arm entries were measured since mice have the habit of always choosing a new arm of the maze. In order to evaluate the degree of memory impairment, the correct alternation rate was calculated based on the percentage of correct arm entries out of the total number of arm entries. Mice of types A, B, and C received drugs as shown below. […] The total number of entries and percentage of correct alternations were analyzed based on data obtained from the Y-maze test. Four mice from each type were examined. The following animals were used in the experiments. • Species: mouse • Strain: Crj:ICR • Sex: male • Age in weeks: 4

COc1ccccc1OCC(O)COC(N)=O (stereo not shown) [Methocarbamol, methocarbamol]
Effect on cognitive function (in words): had the effect of improving cognitive function

Source: patent US12502371B2, “Drug for treating and preventing dementia” (Numan Labo LLC, priority 2019, dated 2025)
